Results reported in article PMC12618397 (Clinical Pharmacokinetics, 2025).
Like-named read-outs stand apart in the source and are kept apart here.

Key:
OATP1B = settings: oral glyburide 1.25 mg, i.v. infusion of 600 mg rifampicin, over 24 h; cited from earlier work
[1] = cited from earlier work
[2] = type: in vivo, humans; settings: final model
plasma protein = settings: cited from earlier work

SMILES: COc1ccc(Cl)cc1C(=O)NCCc1ccc(S(=O)(=O)NC(=O)NC2CCCCC2)cc1 [glyburide]
- increase of plasma AUC vs baseline (OATP1B): 125 ± 51.5%
- volume of distribution outside central compartment (previous estimates) ([1]; 95% CI 1.3–3.2 L derived from reported estimates): 2 L
- central volume of distribution ([1]; Rydberg et al.): 3.63 L
- elimination rate ([1]; Rydberg et al.): 1.59 h⁻^1
- central volume of distribution ([1]; traditional PK modeling, blood samples): 3.8 L

SMILES: COc1ccc(Cl)cc1C(=O)NCCc1ccc(S(=O)(=O)NC(=O)NC2CCCCC2)cc1 [[^11C]glyburide]
- clearance CL=VB×ke [2]: 2.84 L/h
- kBP (transfer blood to pancreas) [2]: 5.9 h⁻¹
- kBS (transfer blood to spleen) [2]: 5.9 h⁻¹
- kPB (transfer pancreas to blood) [2]: 138 h⁻¹
- kSB (transfer spleen to blood) [2]: 131 h⁻¹
- kL1B (exchange rate liver to blood) ([2]; without rifampicin): 20 h⁻^1
- binding to plasma protein (plasma protein): > 99%
